Assays:
[1] = test system: JNK phosphorylation; experiment: JNK Activation Assay (western blot), Panc-1; assay type: cell-based, human; conditions: at 10 μM, Panc-1 pancreatic cancer cell line; starred symbols = activation
Outline: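 KRas G12C Panc-1 cells treated 6 h at 37 °C with compound at 10 μM (0.3% DMSO), or serial dilutions for IC50. In Method 1 cells were serum-starved overnight (0.5% FBS) then stimulated with 1.5 ng/ml EGF for 15 min; Method 2 used 10% FBS without stimulation. Phospho-JNK (Thr183/Tyr185) measured by western blot.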

[2] = test system: Erk1/2 phosphorylation; experiment: Erk1/2 Phosphorylation Assay (western blot), Panc-1; assay type: cell-based, human; conditions: at 10 μM, * = activation
Outline: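 KRas G12D Panc-1 cells were treated 6 h at 37° C with compound at 10 μM or serial dilutions for IC50 (0.3% DMSO). In method 1, cells were serum-starved overnight (0.5% FBS) and then given 1.5 ng/ml EGF for 15 min. In method 2, cells stayed in 10% FBS without stimulation. Lysate phospho-Erk1/2 (Thr202/Tyr204) was read by western blot.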

[3] = molecular target: T1, cdc42 (Homo sapiens, UniProt P60953); experiment: Cdc42 GTP Binding Domain Inhibition Assay; conditions: read-out: Cdc42: % inh.
T1 construct: made in house
Experimental: Protocol for Cdc42 and Rheb GTP Binding Domain Inhibition Assay
The following method was developed as specific assay for cdc42 and Rheb proteins.
• 25 mM Tris-HCl, pH 7.4 • 27 mM KCl • 137 mM NaCl • 1 mM MgCl2 • 1 mM DTT Buffer-II: • 50 mM Tris-HCl, pH 7.0 • 1 mM MgCl2 • 1 mM DTT
The small GTPases proteins cdc42 and Rheb were expressed as His-tagged proteins. For the assay, the cdc42 and Rheb purified small GTPases proteins were diluted in Buffer-I or Buffer-II to a final concentration of 10-30 μg/mL. 200 μL of each diluted protein was added to a nickel-coated 96-well plate and incubated overnight at […]. Then the protein solution was discarded and 200 μL of Buffer-I or Buffer-II was added to each well in the presence of 1% DMSO. Compounds to be tested were added to the protein-coated wells at final concentration of 20 μM, and incubated for 3 hours at room temperature with and without 10-30 μg/mL of Sos added to the final hour of the incubation. When performing IC50 measurements a serial dilution of all tested concentrations was added. Then Cy3-GTP or Cy5-GTP was added to each well to a final concentration of 100 nM. The labeled GTP was incubated for 45 minutes at room temperature. Following GTP incubation, wells were washed 3× in Buffer-I or Buffer-II and 200 μL of Buffer-I or Buffer-II was added to each well. Following washes, the amount of bound labeled-GTP was measured using a SpectraMax M3 (Molecular Devices).

T1 sequence (P60953 whole entry, the tested form may be a part): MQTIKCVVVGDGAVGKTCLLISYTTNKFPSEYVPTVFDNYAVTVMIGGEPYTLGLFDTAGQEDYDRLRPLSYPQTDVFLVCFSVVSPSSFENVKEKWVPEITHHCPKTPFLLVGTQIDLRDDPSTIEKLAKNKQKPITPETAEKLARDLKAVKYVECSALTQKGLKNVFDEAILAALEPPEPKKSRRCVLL

| SMILES | inhibition at 20 µM [3] | % inh of JNK in Panc-1 [1] | % inh of Erk1/2 phosphorylation in Panc-1 [2] |
| --- | --- | --- | --- |
| COc1cnc(Nc2nc(-c3nccn3C)nn3cc(-c4ccn(C(C)C)n4)c(C)c23)nc1 [Compound 56, 6-(1-Isopropyl-1H-pyrazol-3-yl)-N-(5-methoxypyrimidin-2-yl)-5-methyl-2-(1-methyl-1H-imidazol-2-yl)pyrrolo[2,1-f][1,2,4]triazin-4-amine] | 26 to 49% | H* (H* ≥ 100% activation) | C (50-84% inhibition) |
| COc1cccc(-c2cn3nc(-c4nccn4C)nc(N[C@H]4C[C@H](OC)C4)c3c2-c2ccccn2)c1F [Compound 45, 6-(2-Fluoro-3-methoxyphenyl)-N-((1r,3r)-3-methoxycyclobutyl)-2-(1-methyl-1H-imidazol-2-yl)-5-(pyridin-2-yl)pyrrolo[2,1-f][1,2,4]triazin-4-amine] | 26 to 49% | H* (H* ≥ 100% activation) | 0 (0% inhibition) |
| CCn1ccc(-c2cn3nc(-c4nccn4C)nc(Nc4cc(OC)ncn4)c3c2C)n1 [Compound 64, 6-(1-Ethyl-1H-pyrazol-3-yl)-N-(6-methoxypyrimidin-4-yl)-5-methyl-2-(1-methyl-1H-imidazol-2-yl)pyrrolo[2,1-f][1,2,4]triazin-4-amine] | 76 to 100% | H* (H* ≥ 100% activation) | A (1-25% inhibition) |
| COc1cccc(-c2cn3nc(-c4nccn4C)nc(N[C@H]4C[C@H](OC)C4)c3c2-c2ccccc2)c1F [Compound 42, 6-(2-Fluoro-3-methoxyphenyl)-N-((1r,3r)-3-methoxycyclobutyl)-2-(1-methyl-1H-imidazol-2-yl)-5-phenylpyrrolo[2,1-f][1,2,4]triazin-4-amine] | 1 to 25% | H* (H* ≥ 100% activation) | D (85-100% inhibition) |
| COCCO[C@H]1C[C@H](Nc2nc(-c3nccn3C)nn3cc(-c4cccc(OC)c4F)c(-c4ccccc4)c23)C1 [Compound 44, 6-(2-Fluoro-3-methoxyphenyl)-N-((1r,3r)-3-(2-methoxyethoxy)cyclobutyl)-2-(1-methyl-1H-imidazol-2-yl)-5-phenylpyrrolo[2,1-f][1,2,4]triazin-4-amine] | 26 to 49% | H* (H* ≥ 100% activation) | B (26-49% inhibition) |
| COc1cccc(-c2cn3nc(-c4nccn4C)nc(N[C@@H]4CC[C@@H](OC)C4)c3c2-c2ccccc2)c1F (racemic) [Compound 43, rac 6-(2-Fluoro-3-methoxyphenyl)-N-((1R,3R)-3-methoxycyclopentyl)-2-(1-methyl-1H-imidazol-2-yl)-5-phenylpyrrolo[2,1-f][1,2,4]triazin-4-amine] | 1 to 25% | H* (H* ≥ 100% activation) | D (85-100% inhibition) |
| Cc1c(-c2ccn(C(C)C)n2)cn2nc(-c3nccn3C)nc(Nc3cc(C4CC4)no3)c12 [Compound 69, 3-Cyclopropyl-N-(6-(1-isopropyl-1H-pyrazol-3-yl)-5-methyl-2-(1-methyl-1H-imidazol-2-yl)pyrrolo[2,1-f][1,2,4]triazin-4-yl)isoxazol-5-amine] | 0% | H* (H* ≥ 100% activation) | D* (85-100% activation) |
| COc1cccc(-c2cn3nc(-c4nccn4C)nc(N[C@@H]4CC[C@@H](OC)C4)c3c2-c2ccccn2)c1F (racemic) [Compound 46, rac 6-(2-Fluoro-3-methoxyphenyl)-N-((1R,3R)-3-methoxycyclopentyl)-2-(1-methyl-1H-imidazol-2-yl)-5-(pyridin-2-yl)pyrrolo[2,1-f][1,2,4]triazin-4-amine] | 50 to 75% | H* (H* ≥ 100% activation) | 0 (0% inhibition) |
| COc1cccc(-c2cn3nc(-c4nccn4C)nc(N[C@H]4C[C@H](OC)C4)c3c2-c2ccccc2)c1Cl [Compound 32, 6-(2-Chloro-3-methoxyphenyl)-N-((1r,3r)-3-methoxycyclobutyl)-2-(1-methyl-1H-imidazol-2-yl)-5-phenylpyrrolo[2,1-f][1,2,4]triazin-4-amine] | 1 to 25% | H (H = 100% inhibition) | D (85-100% inhibition) |

Continued, in another order:

| inhibition at 20 µM [3] | SMILES | % inh of JNK in Panc-1 [1] | % inh of Erk1/2 phosphorylation in Panc-1 [2] |
| --- | --- | --- | --- |
| 1 to 25% | COc1ccc(Nc2nc(-c3nccn3C)nn3cc(-c4ccn(C(C)C)n4)c(C)c23)cn1 [Compound 71, 6-(1-Isopropyl-1H-pyrazol-3-yl)-N-(6-methoxypyridin-3-yl)-5-methyl-2-(1-methyl-1H-imidazol-2-yl)pyrrolo[2,1-f][1,2,4]triazin-4-amine] | H* (H* ≥ 100% activation) | D* (85-100% activation) |
| 50 to 75% | Cc1c(-c2ccn(C(C)C)n2)cn2nc(-c3nccn3C)nc(Nc3nnco3)c12 [Compound 59, N-(6-(1-Isopropyl-1H-pyrazol-3-yl)-5-methyl-2-(1-methyl-1H-imidazol-2-yl)pyrrolo[2,1-f][1,2,4]triazin-4-yl)-1,3,4-oxadiazol-2-amine] | H* (H* ≥ 100% activation) | C (50-84% inhibition) |
| 50 to 75% | Cc1c(-c2ccn(C(C)C)n2)cn2nc(-c3nccn3C)nc(Nc3ncccn3)c12 [Compound 54, 6-(1-Isopropyl-1H-pyrazol-3-yl)-5-methyl-2-(1-methyl-1H-imidazol-2-yl)-N-(pyrimidin-2-yl)pyrrolo[2,1-f][1,2,4]triazin-4-amine] | H* (H* ≥ 100% activation) | C (50-84% inhibition) |
| 50 to 75% | COc1ccnc(Nc2nc(-c3nccn3C)nn3cc(-c4ccn(C(C)C)n4)c(C)c23)n1 [Compound 53, 6-(1-Isopropyl-1H-pyrazol-3-yl)-N-(4-methoxypyrimidin-2-yl)-5-methyl-2-(1-methyl-1H-imidazol-2-yl)pyrrolo[2,1-f][1,2,4]triazin-4-amine] | H* (H* ≥ 100% activation) | D (85-100% inhibition) |
| 76 to 100% | Cc1c(-c2ccn(C(C)C)n2)cn2nc(-c3nccn3C)nc(Nc3ccn(C)n3)c12 [Compound 61, 6-(1-Isopropyl-1H-pyrazol-3-yl)-5-methyl-2-(1-methyl-1H-imidazol-2-yl)-N-(1-methyl-1H-pyrazol-3-yl)pyrrolo[2,1-f][1,2,4]triazin-4-amine] | H* (H* ≥ 100% activation) | A* (1-25% activation) |
| 50 to 75% | COc1cc(Nc2nc(-c3nccn3C)nn3cc(-c4ccn(C(C)C)n4)c(C)c23)n[nH]1 [Compound 51, 6-(1-Isopropyl-1H-pyrazol-3-yl)-N-(5-methoxy-1H-pyrazol-3-yl)-5-methyl-2-(1-methyl-1H-imidazol-2-yl)pyrrolo[2,1-f][1,2,4]triazin-4-amine] | H* (H* ≥ 100% activation) | 0 (0% inhibition) |
| 1 to 25% | Cc1c(-c2ccn(C(C)C)n2)cn2nc(-c3nccn3C)nc(Nc3ccncc3)c12 [Compound 52, 6-(1-Isopropyl-1H-pyrazol-3-yl)-5-methyl-2-(1-methyl-1H-imidazol-2-yl)-N-(pyridin-4-yl)pyrrolo[2,1-f][1,2,4]triazin-4-amine] | 0 (0 = 0% inhibition) | 0 (0% inhibition) |
| 76 to 100% | COc1ccnc(Nc2nc(-c3nccn3C)nn3cc(-c4ccn(C(C)C)n4)c(C)c23)c1 [Compound 58, 6-(1-Isopropyl-1H-pyrazol-3-yl)-N-(4-methoxypyridin-2-yl)-5-methyl-2-(1-methyl-1H-imidazol-2-yl)pyrrolo[2,1-f][1,2,4]triazin-4-amine] | H* (H* ≥ 100% activation) | D (85-100% inhibition) |
